# Tested on: NCI-H929 cells
# Assay: Anti proliferative activity in NCI-H929 cell line by Cell Titer Glo assay
# Type: cell-based
# Settings: Homo sapiens, 72 h, 3 days compound incubation, CellTiter Glo, read-out: Anti-proliferative activity IC50 group (NCI-H929 cells)
# Protocol: Determination of Anti Proliferative Activity of Compounds in NCI-H929 and NCI-H838 Cell Lines by Cell Titer Glo® (promega) assay:
# NCI-H929 (ATCC CRL-9068) or NCI-H838 (ATCC CRL-5844) cells were seeded in 96 well plate flat black clear bottom plates (Corning, Cat. No 3904) using complete RPMI-1640 media. Next day, compounds listed in the present invention were added to cells from 10 mM stocks made in DMSO (Sigma Cat no. D2650). Each concentration of compound was tested in triplicate with DMSO concentration at a final percentage not exceeding 0.3 in the cells. After the compound incubation (3 days for H929 and 8 days for H838) assay was terminated using 50 μl of CellTiter Glo® reagent (Promega, Cat. no G7572). CellTiter Glo® Luminescent reagent determines the number of viable cells based on quantitation of ATP present which is an indicator of cell number and metabolic activity. Luminescence readings were taken in Victor-3 instrument. Percent inhibition of proliferation was calculated using formula, % inhibition=100−(luminescence value of test/luminescence value of DMSO control)*100. DMSO control (0%)=Cells in complete media with DMSO; blank=Media alone containing DMSO. IC50 was calculated using graph pad prism software.
# Herein group “A” refers to IC50 value lower than 1 μM, “B” refers to IC50 value between 1-10 μM (both inclusive) and “C” refers to IC50 value higher than 10 μM or less than 50% activity at 10 μM.
row,Compound,IC50 [µM]
1,"COC(=O)c1cc(N2CCN(CC(=O)N[C@H](C(=O)N3C[C@H](O)C[C@H]3C(=O)N[C@@H](C)c3ccc(-c4scnc4C)cc3)C(C)(C)C)CC2)c(N)nn1 [Compound 72, methyl 6-amino-5-(4-(2-(((S)-1-((2S,4R)-4-hydroxy-2-(((S)-1-(4-(4-methylthiazol-5-yl)phenyl)ethyl)carbamoyl)pyrrolidin-1-yl)-3,3-dimethyl-1-oxobutan-2-yl)amino)-2-oxoethyl)piperazin-1-yl)pyridazine-3-carboxylate]",> 10
2,"Cc1ncsc1-c1ccc([C@H](C)NC(=O)[C@@H]2C[C@@H](O)CN2C(=O)[C@@H](NC(=O)CN2CCN(c3cc(C(=O)O)nnc3N)CC2)C(C)(C)C)cc1 [Compound 73, 6-amino-5-(4-(2-(((S)-1-((2S,4R)-4-hydroxy-2-(((S)-1-(4-(4-methylthiazol-5-yl)phenyl)ethyl)carbamoyl)pyrrolidin-1-yl)-3,3-dimethyl-1-oxobutan-2-yl)amino)-2-oxoethyl)piperazin-1-yl)pyridazine-3-carboxylic acid]",> 10
3,Cc1ncsc1-c1ccc([C@H](C)NC(=O)[C@@H]2C[C@@H](O)CN2C(=O)[C@@H](NC(=O)CN2CCN(c3cc(-c4ccccc4Cl)nnc3N)CC2)C(C)(C)C)cc1 [Compound 89],> 10
4,Cc1ncsc1-c1ccc([C@H](C)NC(=O)[C@@H]2C[C@@H](O)CN2C(=O)[C@@H](NC(=O)CC2CCN(c3cc(-c4ccccc4F)nnc3N)CC2)C(C)(C)C)cc1 [Compound 97],1 to 10
5,Cc1ncsc1-c1ccc([C@H](C)NC(=O)[C@@H]2C[C@@H](O)CN2C(=O)[C@@H](NC(=O)CC2CN(c3cc(-c4ccccc4O)nnc3N)C2)C(C)(C)C)cc1 [Compound 104],1 to 10
6,Cc1ncsc1-c1ccc(CNC(=O)[C@@H]2C[C@H](O)CN2C(=O)[C@@H](NC(=O)CN2CCN(c3cc(-c4ccccc4O)nnc3N)CC2)C(C)(C)C)cc1 [Compound 105],1 to 10
7,Cc1ncsc1-c1ccc([C@H](C)NC(=O)[C@@H]2C[C@H](O)CN2C(=O)[C@@H](NC(=O)CN2CCN(c3cc(-c4ccccc4O)nnc3N)CC2)C(C)(C)C)cc1 [Compound 106],1 to 10
8,Cc1ncsc1-c1ccc([C@H](C)NC(=O)[C@@H]2C[C@@H](F)CN2C(=O)[C@@H](NC(=O)CN2CCN(c3cc(-c4ccccc4O)nnc3N)CC2)C(C)(C)C)cc1 [Compound 107],1 to 10
9,Cc1ncsc1-c1ccc([C@H](C)NC(=O)[C@@H]2C[C@@H](O)CN2C(=O)[C@@H](NC(=O)CCCCC(=O)N2CCN(c3cc(-c4ccccc4O)nnc3N)CC2)C(C)(C)C)cc1 [Compound 110],< 1
10,Cc1ncsc1-c1ccc([C@H](C)NC(=O)[C@@H]2C[C@@H](O)CN2C(=O)[C@@H](NC(=O)CCCCCCCC(=O)N2CCN(c3cc(-c4ccccc4O)nnc3N)CC2)C(C)(C)C)cc1 [Compound 111],< 1
11,Cc1ncsc1-c1ccc([C@H](C)NC(=O)[C@@H]2C[C@@H](O)CN2C(=O)[C@@H](NC(=O)CCCCCC(=O)N2CCN(c3cc(-c4ccccc4O)nnc3N)CC2)C(C)(C)C)cc1 [Compound 112],< 1
12,Cc1ncsc1-c1ccc([C@H](C)NC(=O)[C@@H]2C[C@@H](O)CN2C(=O)[C@@H](NC(=O)CCCCCNC(=O)C2CCN(c3cc(-c4ccccc4O)nnc3N)CC2)C(C)(C)C)cc1 [Compound 113],1 to 10
13,Cc1ncsc1-c1ccc([C@H](C)NC(=O)[C@@H]2C[C@@H](O)CN2C(=O)[C@@H](NC(=O)CCCC(=O)N2CCN(c3cc(-c4ccccc4O)nnc3N)CC2)C(C)(C)C)cc1 [Compound 114],> 10
14,Cc1ncsc1-c1ccc([C@H](C)NC(=O)[C@@H]2C[C@H](O)CN2C(=O)[C@@H](NC(=O)CCCCCCC(=O)N2CCN(c3cc(-c4ccccc4O)nnc3N)CC2)C(C)(C)C)cc1 [Compound 115],1 to 10

# Target: SMARCA2 (Homo sapiens, UniProt P51531)
# Assay: SMARCA2 degradation in NCI-H838 cells by Western blot
# Type: cell-based
# Parameters: endogenous in cells; host or cells: NCI-H838 (ATCC CRL-5844)
# Settings: 16 hours
# Protocol: Determination of SMARCA2 Degradation in NCI-1H838 Cells by Western Blot:
# NCI-1H838 (ATCC CRL-5844) was plated in 6 well plates using complete RPMI-1640 media. Next day, compounds of present invention were added to cells from 10 mM stocks made in DMSO (Sigma Cat no. D2650). Each concentration of compound was tested with DMSO concentration not exceeding a final percentage of 0.3 in the cells. Cells were incubated with the compound for 16 hours followed by harvesting with 1× RIPA lysis buffer (Thermo Fischer, catalogue number #89900) containing protease inhibitor cocktail (Sigma catalogue number #P-8340). Equal amount of protein was loaded on SIDS PAGE gel for electrophoresis. Western blot was carried out for detection of SMARCA2 with antibody (Cell signaling technologies, catalogue number #11966). Beta Actin (Santa Cruz, catalogue number #69879) was used as loading control. Percentage of SMARCA2 degradation was calculated using formula % degradation=100−(normalized band intensity in treated sample/normalized band intensity in DMSO sample)*100”.
# Selected compounds of the present invention were screened in the above mentioned assay procedures for determination of % SMARCA2 degradation at 100 nM and the results are summarized in below table 31.
# Chain of SMARCA2 (P51531 whole entry): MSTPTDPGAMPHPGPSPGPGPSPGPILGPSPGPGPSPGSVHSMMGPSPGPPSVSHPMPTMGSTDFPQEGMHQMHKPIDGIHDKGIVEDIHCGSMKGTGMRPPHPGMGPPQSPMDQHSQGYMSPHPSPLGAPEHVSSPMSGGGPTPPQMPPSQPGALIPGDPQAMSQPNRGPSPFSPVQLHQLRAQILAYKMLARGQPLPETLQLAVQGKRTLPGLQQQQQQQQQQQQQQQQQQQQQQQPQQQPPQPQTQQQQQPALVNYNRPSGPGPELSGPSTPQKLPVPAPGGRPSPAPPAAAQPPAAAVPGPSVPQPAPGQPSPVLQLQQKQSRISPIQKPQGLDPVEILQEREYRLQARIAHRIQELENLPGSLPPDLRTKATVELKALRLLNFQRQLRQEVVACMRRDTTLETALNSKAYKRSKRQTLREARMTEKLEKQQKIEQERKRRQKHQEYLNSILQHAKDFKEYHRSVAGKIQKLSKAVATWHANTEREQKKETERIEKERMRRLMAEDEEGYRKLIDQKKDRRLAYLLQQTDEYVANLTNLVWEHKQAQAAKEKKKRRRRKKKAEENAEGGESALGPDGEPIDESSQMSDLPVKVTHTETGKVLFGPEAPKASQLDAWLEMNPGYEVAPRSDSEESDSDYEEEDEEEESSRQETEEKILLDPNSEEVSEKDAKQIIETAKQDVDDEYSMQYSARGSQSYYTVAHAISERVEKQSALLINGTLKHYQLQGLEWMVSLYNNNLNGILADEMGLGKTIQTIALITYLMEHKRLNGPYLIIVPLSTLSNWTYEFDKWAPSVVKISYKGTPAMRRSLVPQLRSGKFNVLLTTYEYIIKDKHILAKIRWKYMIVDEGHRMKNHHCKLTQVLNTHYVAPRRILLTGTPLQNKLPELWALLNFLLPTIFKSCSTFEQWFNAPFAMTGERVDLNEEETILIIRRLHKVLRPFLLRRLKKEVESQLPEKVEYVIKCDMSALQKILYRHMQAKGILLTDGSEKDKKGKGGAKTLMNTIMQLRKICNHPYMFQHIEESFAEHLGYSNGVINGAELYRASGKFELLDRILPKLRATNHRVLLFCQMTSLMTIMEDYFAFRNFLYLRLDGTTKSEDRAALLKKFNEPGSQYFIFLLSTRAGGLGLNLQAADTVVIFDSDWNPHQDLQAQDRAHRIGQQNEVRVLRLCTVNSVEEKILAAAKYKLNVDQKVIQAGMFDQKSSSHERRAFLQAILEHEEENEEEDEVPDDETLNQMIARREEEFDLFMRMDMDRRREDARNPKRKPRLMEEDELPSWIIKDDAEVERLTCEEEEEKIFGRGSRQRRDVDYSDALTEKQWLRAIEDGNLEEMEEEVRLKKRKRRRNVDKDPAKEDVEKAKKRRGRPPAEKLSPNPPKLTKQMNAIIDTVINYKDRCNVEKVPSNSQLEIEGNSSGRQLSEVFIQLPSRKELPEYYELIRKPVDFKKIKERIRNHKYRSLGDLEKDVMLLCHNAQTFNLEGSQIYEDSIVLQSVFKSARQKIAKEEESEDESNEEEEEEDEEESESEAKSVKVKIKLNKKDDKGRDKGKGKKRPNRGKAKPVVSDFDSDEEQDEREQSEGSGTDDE
row,Compound,SMARCA2 @ 100 nM (% SMARCA2 degradation) [%]
1,"Cc1ncsc1-c1ccc(C(NC(=O)[C@@H]2C[C@@H](O)CN2C(=O)[C@@H](NC(=O)CC2CCN(c3cc(-c4cccc(F)c4O)nnc3N)CC2)C(C)(C)C)C(F)(F)F)cc1 (single isomer, unassigned) [Compound 77]",9
2,"Cc1ncsc1-c1ccc(C(NC(=O)[C@@H]2C[C@@H](O)CN2C(=O)[C@@H](NC(=O)CC2CCN(c3cc(-c4cccc(F)c4O)nnc3N)CC2)C(C)(C)C)C(F)(F)F)cc1 (single isomer, unassigned) [Compound 78]",26
3,"Cc1ncsc1-c1ccc([C@H](C)NC(=O)[C@@H]2C[C@@H](O)CN2C(=O)[C@@H](NC(=O)Cn2cc(-c3cc(-c4cccc(F)c4O)nnc3N)cn2)C(C)(C)C)cc1 [Compound 62, (2S,4R)-1-((S)-2-(2-(4-(3-amino-6-(3-fluoro-2-hydroxyphenyl)pyridazin-4-yl)-1H-pyrazol-1-yl)acetamido)-3,3-dimethylbutanoyl)-4-hydroxy-N—((S)-1-(4-(4-methylthiazol-5-yl)phenyl)ethyl)pyrrolidine-2-carboxamide]",27
4,"Cc1ncsc1-c1ccc([C@H](C)NC(=O)[C@@H]2C[C@@H](O)CN2C(=O)[C@@H](NC(=O)CN2CCN(c3cc(-c4ccccc4O)nnc3N)CC2)C(C)(C)C)cc1.Cl [Compound 65, (2S,4R)-1-((S)-2-(2-(4-(3-amino-6-(2-hydroxyphenyl)pyridazin-4-yl)piperazin-1-yl)acetamido)-3,3-dimethylbutanoyl)-4-hydroxy-N—((S)-1-(4-(4-methylthiazol-5-yl)phenyl)ethyl)pyrrolidine-2-carboxamide hydrochloride]",94
5,Nc1nnc(-c2ccccc2O)cc1N1CCN(CCC(=O)Nc2cccc3c2C(=O)N(C2CCC(=O)NC2=O)C3=O)CC1 (stereo not drawn) [Compound 69],12
6,Nc1nnc(-c2ccccc2O)cc1N1CCN(CCCC(=O)Nc2cccc3c2C(=O)N(C2CCC(=O)NC2=O)C3=O)CC1 (stereo not drawn) [Compound 70],-11
7,"Cc1ncsc1-c1ccc([C@H](C)NC(=O)[C@@H]2C[C@@H](O)CN2C(=O)[C@@H](NC(=O)CN2CCN(c3cc(C(N)=O)nnc3N)CC2)C(C)(C)C)cc1 [Compound 74, 6-amino-5-(4-(2-(((S)-1-((2S,4R)-4-hydroxy-2-(((S)-1-(4-(4-methylthiazol-5-yl)phenyl)ethyl)carbamoyl)pyrrolidin-1-yl)-3,3-dimethyl-1-oxobutan-2-yl)amino)-2-oxoethyl)piperazin-1-yl)pyridazine-3-carboxamide]",21
8,"CNC(=O)c1cc(N2CCN(CC(=O)N[C@H](C(=O)N3C[C@H](O)C[C@H]3C(=O)N[C@@H](C)c3ccc(-c4scnc4C)cc3)C(C)(C)C)CC2)c(N)nn1 [Compound 75, 6-amino-5-(4-(2-(((S)-1-((2S,4R)-4-hydroxy-2-(((S)-1-(4-(4-methylthiazol-5-yl)phenyl)ethyl)carbamoyl)pyrrolidin-1-yl)-3,3-dimethyl-1-oxobutan-2-yl)amino)-2-oxoethyl)piperazin-1-yl)-N-methylpyridazine-3-carboxamide]",12
9,Cc1ncsc1-c1ccc([C@H](C)NC(=O)[C@@H]2C[C@@H](O)CN2C(=O)[C@@H](NC(=O)OC2CCN(c3cc(-c4ccccc4O)nnc3N)CC2)C(C)(C)C)cc1 [Compound 80],13
10,Cc1ncsc1-c1ccc([C@H](C)NC(=O)[C@@H]2C[C@@H](O)CN2C(=O)[C@@H](NC(=O)CN2CCN(c3cc(-c4ccccc4N)nnc3N)CC2)C(C)(C)C)cc1 [Compound 93],74

# Reference: US12371426B2, “Pyridazine derivatives as SMARCA2/4 degraders” (Aurigene Discovery Technologies Limited, priority 2018, dated 2025)
